Measurements taken from ChEMBL document CHEMBL3507680, “University of Dundee, Gates Library screen for HepG2 cell viability”.

Test: Human HepG2 cell viability assay in 384 well format
Assay type: toxicity, cell-based
Parameters: dose 125 nL, time 70.5 hour; cytotoxicity at 70.5 h: concentration not given beside the values
Details: HepG2 cells, read-out: Inhibition

Point of comparison: `CCC[C@@H]1CN(C(=O)c2ccccc2C(C)=O)C[C@H]1N(C)C`, cytotoxicity at 70.5 h 7.99%. Against it:
- FC(F)(F)Oc1ccc(-c2noc([C@@H]3Cc4nc[nH]c4CN3)n2)cc1 — lower, -4.51%
- NCC1CCN(c2nc(C3CCCC3)nc3c2CCNCC3)C1 (stereo not drawn) — higher, 21.5%
- CCn1cnc(NC(=O)NCC2CCS(=O)(=O)CC2)n1 — lower, -19.4%
- O=C1CCC2(CCN(Cc3ccc(F)cc3)CC2)N1Cc1ccccc1 — lower, -5.78%
- CCOC(=O)C1CN(C(=O)C2CCOCC2)Cc2ncn(CC)c21 (stereo not drawn) — lower, -3.55%
- Cc1nn(C)c(C)c1CC(=O)NCC1(C(N)=O)CCOCC1 — higher, 22.8%
- COC(=O)CN1CCSC(c2ccccc2)C1 (stereo not drawn) — lower, -13.2%
- COCCN1CCc2ncnc(NC3CC3)c2CC1 — lower, -2.68%
- CC(C)(CO)Nc1c(NCc2ccncc2)c(=O)c1=O — lower, -9.44%
- Cc1noc(C)c1CN1CCc2ncc(CN3CCCC3)n2CC1 — lower, -5.92%
- O=C1C(NS(=O)(=O)c2ccc(F)cc2F)CCN1Cc1ccccc1 (stereo not drawn) — lower, -7.99%
- Cc1nc(CCNC(=O)C2CC(=O)N(C(C)(C)C)C2)sc1Cl (stereo not drawn) — lower, 4.69%
- CSc1ccc(CNc2ccccc2CN2CCC(O)CC2)cc1 — lower, -3.71%
- Cc1ccc(-c2nc(CNC3CCc4ncnn4C3)co2)c(C)c1 (stereo not drawn) — lower, 1.75%
- CC(C)OCc1ncn2c1CN(Cc1ccc(F)cc1)CCC2 — lower, -3.8%
- Cc1cc(CN2CCN(C(=O)c3ccc(=O)n(C)c3)CC2)no1 — lower, -5.04%
- COc1cccc(CN2CCCC3(CCN(C(=O)[C@H]4CCCO4)C3)C2)c1 (stereo partly drawn) — lower, -2.99%
- CCCc1cc(NC(=O)c2cc(N3CCNC3=O)c(F)cc2F)n[nH]1 — lower, 1.56%
- O=C(CCCc1ccccc1)N1CCCC(n2cncn2)C1 (stereo not drawn) — lower, -4.48%
- Cc1ccc(C(=O)NC(CN2CCCC2=O)c2ccccc2)cn1 (stereo not drawn) — lower, 2.77%
- c1cnc(N2CCO[C@H]3CN(CC4CCOC4)C[C@H]32)cn1 (stereo partly drawn) — lower, -2.13%
- Cn1c(=O)[nH]c(=O)n2c(CC(=O)Nc3c(Cl)cccc3Cl)cnc12 — lower, -14.2%
- CC(=O)N1CCC(Cc2cccc(-c3c(C)noc3C)n2)C1 (stereo not drawn) — lower, -7.61%
- c1csc(-c2noc(CCCN3CCCC3Cn3cncn3)n2)c1 (stereo not drawn) — lower, 2.46%
- Cc1cccc(OCCC(=O)N2CCN(S(=O)(=O)N(C)C)CC2)c1C — higher, 20.1%
- CC(C)CC(CNC(=O)NCc1cc[nH]n1)N1CCOCC1 (stereo not drawn) — higher, 39.4%
- Cc1ccc(-c2cnnc(NCC3CCOCC3)n2)o1 — higher, 28.5%
- Cc1noc(C)c1CN(C)Cn1c(=O)oc2ccccc21 — higher, 39.4%
- O=C(C1CCC1)N1CCN(Cc2ccc(F)cc2)[C@H]2CS(=O)(=O)C[C@H]21 — lower, -3.17%
- O=C(NC1CCCC1)c1nc(COc2ccc3c(c2)OCO3)no1 — lower, -9.86%
- CCn1cnnc1CNC(=O)N(C)Cc1ccc(Cl)cc1Cl — lower, 3.74%
- O=C(NCCc1ccco1)Nc1cc(C(F)(F)F)c[nH]c1=O — lower, -0.302%
- COCCNC(=O)[C@@H]1CN(c2cc(OC)ncn2)C[C@H]2OCC[C@H]21 — lower, -7.76%
- Cc1cnc(N2CCOC3(CCCN(C(=O)C(C)C)C3)C2)nc1 (stereo not drawn) — lower, -3.83%
- CS(=O)(=O)c1ccc(NCC2CCCO2)c(S(C)(=O)=O)c1 (stereo not drawn) — lower, -9.12%
- CN(C)C(=O)CN1CCCC(CCCc2ccccn2)(C(N)=O)C1 (stereo not drawn) — higher, 10.1%
- CCCn1cc(-c2cc(-c3c[nH]cn3)c(C#N)c(N)n2)c(C)n1 — lower, 3.58%
- O=C1CO[C@H]2CN(S(=O)(=O)c3ccccc3)C[C@H]2N1CC1CCCCC1 — lower, -11.1%
- CCOc1ccccc1CNC(=O)c1cnn(CC)c1C(F)(F)F — higher, 17.5%
- COC(=O)CC(NC(=O)c1ccccc1OC)c1cccs1 (stereo not drawn) — lower, 5.97%
- Cc1cc(CN2CCCC(NS(C)(=O)=O)C2)ccc1-n1cncn1 (stereo not drawn) — higher, 11.7%
- Nc1nc(C2CCN(C(=O)c3cscn3)CC2)cs1 — lower, -18.4%
- Cc1n[nH]c(C)c1NC(=O)CN1CCc2c(nc(C3CC3)n2C)C1 — higher, 17.7%
- Cn1c(=O)[nH]c(=O)c2c1nc1n2CC(c2ccc(Br)cc2)O1 (stereo not drawn) — lower, -3.88%
- Cc1ccc2cc(C(=O)N3CCCCC3c3nc[nH]n3)ccc2n1 (stereo not drawn) — higher, 11.1%
- CCC(C(=O)N(C)Cc1cc(-c2ccccc2)n[nH]1)n1cccn1 (stereo not drawn) — lower, -13.1%
- O=C(c1cc(Cl)c2c(c1)OCO2)N1CCN(c2ccccn2)CC1 — lower, -2.19%
- O=C(COc1ccccc1Cl)N1CCCC(n2ccnc2)C1 (stereo not drawn) — lower, -2.83%
- CCCc1nnc(NCCc2noc(C3CCCC3)n2)o1 — higher, 9.03%
- CC(C)CCN1Cc2c(C(=O)O)ncn2-c2ccccc2S1(=O)=O — higher, 30.1%
- CCN(C)C(=O)c1coc(COc2ccccc2)n1 — lower, -4.16%
- CCn1cc(CNCc2ccc(C(=O)OC)cc2)c(C)n1 — lower, -0.911%
- CCN(CC)[C@@H]1CN(C(=O)c2ccnnc2)[C@@H]2CCCO[C@H]12 — lower, -8.7%
- CN(C)[C@@H]1CN(Cc2ccccc2O)C[C@H]1c1cn(C)c2ccccc12 — higher, 44.4%
- CCOC(C)C(=O)NCc1cccc(CN2CCCCCC2)c1 (stereo not drawn) — lower, -2.85%
- CC(Oc1ccccc1)C(=O)N1CCCN(Cc2cscn2)CC1 (stereo not drawn) — lower, 6.19%
- Cn1cc(-c2nc3c(cc2C(=O)O)CCN(C(=O)C2CC2)CC3)cn1 — lower, -7.13%
- CCS(=O)(=O)N1CCC(c2nccn2Cc2ccncc2)CC1 — lower, -1.9%
- CC(C)CS(=O)(=O)N1C[C@H]2C[C@H](C(=O)NCc3ccccc3)[C@@H](C1)O2 — lower, -7.71%
- Cc1cc(C)c(C#N)c(NCCn2cnnc2C(C)C)n1 — lower, 0.173%
- Cn1cnc(S(=O)(=O)N2CCCc3c(F)cc(F)cc32)c1Cl — higher, 22.3%
- Cc1nc(C)n(CC2CN(CCn3cccn3)CCO2)n1 (stereo not drawn) — higher, 31.9%
- CC(C)N1[C@H](Cn2cncn2)C[C@@H]2CN(Cc3ccsc3)CC[C@@H]21 — lower, -2.74%
- COC(=O)c1cccn1C1CCN(C(=O)c2cc(F)ccc2C)CC1 — lower, -16.9%
- CCn1ncnc1CN1CCc2[nH]cnc2C1Cc1ccccc1 (stereo not drawn) — lower, -5.67%
- O=C(O)COc1ccc(Cl)cc1CN1CCC2(CCOCC2)CC1 — lower, 2.03%
- CC(CO)CN(Cc1ccccc1)Cc1c[nH]cn1 (stereo not drawn) — lower, -15.2%
- Cc1ccnn1-c1ccc(C(=O)N2CCN(c3cnccn3)CC2)cc1 — lower, -0.832%
- CN1CCCCC1c1cncc(N2CCC(O)CC2)n1 (stereo not drawn) — lower, -0.469%
- CS(=O)(=O)c1ccccc1C(=O)NCC1Cc2ccccc2O1 (stereo not drawn) — lower, -4.69%
- Cn1ccnc1SCCNC1CCN(c2nc3ccccc3s2)CC1 — lower, -1.58%
- Cc1cnn(CCC(=O)N2CCCC(c3noc(C)n3)C2)c1 (stereo not drawn) — lower, 1.71%
- OC1(CNCCc2nc3c(s2)CCCC3)CNCCOC1 (stereo not drawn) — lower, 4.06%
- Cc1cc(N2CCCC(OC(=O)CCN3CCCC3=O)C2)nc(C)n1 (stereo not drawn) — lower, -5.43%
- Cn1cc(C(=O)N2CC[C@@H]3[C@@H]2CCN3c2ccccn2)cn1 — lower, -5.62%
- FC(F)(F)c1nnc2n1CCN(c1nc(C3CC3)ns1)C2 — lower, -1.08%
- O=C(COCc1nc(-c2ccncc2)no1)N1CCCCC1 — lower, -6.97%
- NC(=O)c1ccc(-n2ccnc2C2CC2)cc1N1CCCC1 — lower, -3.29%
- Cc1ccc([C@@]2(O)CC[C@@H]3CN(S(=O)(=O)C(C)C)C[C@@H]32)cc1 — lower, 2.49%
- OC[C@H]1CCCN1c1nccc(-c2cncnc2C2CCCCC2)n1 — lower, -2.18%
- Cc1cc(C(=O)N[C@H](C)c2onc(C)c2C(=O)O)c(C)o1 — lower, -4.02%
- COC(=O)[C@H](CSC)Nc1nc(C2CCCC2)nc2c1cnn2C — lower, -8.48%
- O=C(C1CCN(c2cccnn2)C1)N1CCOCC1 (stereo not drawn) — lower, 1.06%
- Cc1nn(CCO)c(C)c1-c1cc(C(C)(C)C)nc(N)c1C#N — higher, 16.9%
- CCc1noc(C)c1C(=O)N1CCCC1c1c(C)nn(C)c1OC (stereo not drawn) — higher, 18%
- CC(C)C1SCC(=O)Nc2c1c(O)nn2C1CCCC1 (stereo not drawn) — lower, -23.1%
- NC(=O)NCCC(=O)NCc1cccnc1N1CCc2ccccc2C1 — lower, -11.6%
- COc1ccccc1CN1CCC(Cc2cnc(CN(C)C)cn2)CC1 — lower, -2.82%
- COc1ccc2c(C)nc(N3CCN([C@H]4CCCC[C@@H]4O)CC3)nc2c1 — higher, 18.8%
- CC1N(C)C(=O)COC12CCN(C(=O)Cc1ccsc1)CC2 (stereo not drawn) — lower, -5.66%
- Cc1ncc2c(n1)CN(Cc1nc(-c3cccs3)no1)CC2 — higher, 9.81%
- CCNC(=O)NCc1ccc(-n2ccc(C(F)(F)F)n2)cc1 — lower, -3.86%
- O=C1CCc2cc(-c3csc(CCN4CCCC4=O)n3)ccc2N1 — lower, -14.6%
- CN1CCN2CCN(C(=O)c3cc4ncc(CCO)cn4n3)CC2C1 (stereo not drawn) — lower, -15.2%
- COc1ccccc1CNC(=O)N1CCCC(c2nncn2C)C1 (stereo not drawn) — lower, -2.85%
- Cc1n[nH]cc1CNCC1(c2ccccc2Cl)CCOCC1 — lower, -4.88%
- CC(COc1ccccc1F)NC(=O)N[C@@H]1C=C[C@H](CO)C1 (stereo partly drawn) — lower, -7.04%
- CC(C)Cc1noc(CN2CCN(CCO)CC2)n1 — lower, -4.77%
- COc1ccc(OCCN2CCOCS2(=O)=O)cc1 — lower, -6.02%
- O=C(c1cocn1)N1C[C@H]2CCC[C@@]2(COCc2cccnc2)C1 — lower, -1.51%
- O=C(O)C1(Cc2ccccc2F)CCCN(c2ncnc3[nH]ccc23)C1 (stereo not drawn) — lower, -0.879%
- CCNc1cc2c(nn1)CCN(C(=O)c1cc3ccccc3[nH]c1=O)C2 — lower, -12.3%
- Cc1ccc(CN2CCc3ncnc(C4CCOC4)c3CC2)s1 (stereo not drawn) — lower, 2.16%
- CNC(=O)COc1ccccc1CNC1CCc2nc(C)nn2C1 (stereo not drawn) — lower, -6.32%
- Cc1sc2ncnc(N3CCCC3Cn3cccn3)c2c1C (stereo not drawn) — lower, -11.4%
- CC(C)NC(=O)[C@@H]1C[C@@H](N)CN1C(=O)CCSCc1ccc(F)cc1 — lower, -3.93%
- CC(C)c1ccc(OCCC(=O)N(C)CC(N)=O)cc1 — lower, -12.9%
- CCN1CCn2c(C)cnc2C12CCN(C(=O)Cc1ccccc1)CC2 — higher, 24.6%
- CC(CCc1ccccc1)NC(=O)CN1CCOCC1 (stereo not drawn) — lower, -3.3%
- Fc1cccc(CNc2cncc(-n3cccn3)n2)c1 — lower, -6.71%
- Cc1nn(C2CCS(=O)(=O)C2)c(O)c1CCc1ccccc1 (stereo not drawn) — lower, -8.16%
- CC(C)(C)n1cc(NCc2cscn2)cn1 — lower, -6.29%
